Measurements from the Kinase Knowledgebase extract (Sharma et al. 2016).

Experiments:
EGFR (human) = EGFR (human) (UniProt P00533)
[1] = molecular target: EGFR (human), P00533 [L858R]
[2] = molecular target: EGFR (Human), P00533 [T790M/L858R]
[3] = molecular target: EGFR (Human), P00533 [Assessment of EGFR-Del T790M Dependent Cell Proliferation in BaF3 Cells]
[4] = molecular target: EGFR (Human), P00533 [T790M/L858R]; details: baf3

Measured: IC50

Chain of EGFR (human), P00533 [L858R] (P00533 whole entry L858R, looked up): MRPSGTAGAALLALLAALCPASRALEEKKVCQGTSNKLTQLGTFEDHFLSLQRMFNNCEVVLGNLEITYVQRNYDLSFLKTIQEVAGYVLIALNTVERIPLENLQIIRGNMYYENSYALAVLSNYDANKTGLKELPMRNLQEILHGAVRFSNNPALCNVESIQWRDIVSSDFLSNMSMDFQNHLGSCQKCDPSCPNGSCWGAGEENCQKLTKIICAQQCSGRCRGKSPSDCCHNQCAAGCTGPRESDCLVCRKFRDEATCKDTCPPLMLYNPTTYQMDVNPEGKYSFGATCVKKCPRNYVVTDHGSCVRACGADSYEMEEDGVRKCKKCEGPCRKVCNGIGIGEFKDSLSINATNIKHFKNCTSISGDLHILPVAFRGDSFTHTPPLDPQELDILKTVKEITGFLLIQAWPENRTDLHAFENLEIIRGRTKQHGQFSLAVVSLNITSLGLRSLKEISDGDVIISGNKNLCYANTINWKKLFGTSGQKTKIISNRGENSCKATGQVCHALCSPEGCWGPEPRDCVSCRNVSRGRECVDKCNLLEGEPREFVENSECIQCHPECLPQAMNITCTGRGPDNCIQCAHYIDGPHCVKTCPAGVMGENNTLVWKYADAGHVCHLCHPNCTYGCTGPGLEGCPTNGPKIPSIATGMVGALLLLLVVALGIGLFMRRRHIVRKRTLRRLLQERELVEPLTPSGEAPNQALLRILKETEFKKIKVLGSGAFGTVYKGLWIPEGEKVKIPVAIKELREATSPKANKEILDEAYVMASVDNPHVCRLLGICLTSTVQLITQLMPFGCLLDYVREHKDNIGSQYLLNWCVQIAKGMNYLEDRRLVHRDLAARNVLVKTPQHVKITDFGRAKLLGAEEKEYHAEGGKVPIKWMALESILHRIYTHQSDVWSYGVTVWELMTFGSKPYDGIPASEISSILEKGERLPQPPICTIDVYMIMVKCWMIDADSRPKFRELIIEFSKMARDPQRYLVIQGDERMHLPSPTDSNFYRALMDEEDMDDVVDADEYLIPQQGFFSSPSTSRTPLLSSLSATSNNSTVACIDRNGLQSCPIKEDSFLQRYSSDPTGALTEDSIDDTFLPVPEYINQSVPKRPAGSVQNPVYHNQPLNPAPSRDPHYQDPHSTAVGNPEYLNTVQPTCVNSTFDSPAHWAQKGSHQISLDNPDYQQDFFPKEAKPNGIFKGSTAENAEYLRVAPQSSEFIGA
Chain of EGFR (Human), P00533 [T790M/L858R] (P00533 whole entry T790M/L858R, looked up): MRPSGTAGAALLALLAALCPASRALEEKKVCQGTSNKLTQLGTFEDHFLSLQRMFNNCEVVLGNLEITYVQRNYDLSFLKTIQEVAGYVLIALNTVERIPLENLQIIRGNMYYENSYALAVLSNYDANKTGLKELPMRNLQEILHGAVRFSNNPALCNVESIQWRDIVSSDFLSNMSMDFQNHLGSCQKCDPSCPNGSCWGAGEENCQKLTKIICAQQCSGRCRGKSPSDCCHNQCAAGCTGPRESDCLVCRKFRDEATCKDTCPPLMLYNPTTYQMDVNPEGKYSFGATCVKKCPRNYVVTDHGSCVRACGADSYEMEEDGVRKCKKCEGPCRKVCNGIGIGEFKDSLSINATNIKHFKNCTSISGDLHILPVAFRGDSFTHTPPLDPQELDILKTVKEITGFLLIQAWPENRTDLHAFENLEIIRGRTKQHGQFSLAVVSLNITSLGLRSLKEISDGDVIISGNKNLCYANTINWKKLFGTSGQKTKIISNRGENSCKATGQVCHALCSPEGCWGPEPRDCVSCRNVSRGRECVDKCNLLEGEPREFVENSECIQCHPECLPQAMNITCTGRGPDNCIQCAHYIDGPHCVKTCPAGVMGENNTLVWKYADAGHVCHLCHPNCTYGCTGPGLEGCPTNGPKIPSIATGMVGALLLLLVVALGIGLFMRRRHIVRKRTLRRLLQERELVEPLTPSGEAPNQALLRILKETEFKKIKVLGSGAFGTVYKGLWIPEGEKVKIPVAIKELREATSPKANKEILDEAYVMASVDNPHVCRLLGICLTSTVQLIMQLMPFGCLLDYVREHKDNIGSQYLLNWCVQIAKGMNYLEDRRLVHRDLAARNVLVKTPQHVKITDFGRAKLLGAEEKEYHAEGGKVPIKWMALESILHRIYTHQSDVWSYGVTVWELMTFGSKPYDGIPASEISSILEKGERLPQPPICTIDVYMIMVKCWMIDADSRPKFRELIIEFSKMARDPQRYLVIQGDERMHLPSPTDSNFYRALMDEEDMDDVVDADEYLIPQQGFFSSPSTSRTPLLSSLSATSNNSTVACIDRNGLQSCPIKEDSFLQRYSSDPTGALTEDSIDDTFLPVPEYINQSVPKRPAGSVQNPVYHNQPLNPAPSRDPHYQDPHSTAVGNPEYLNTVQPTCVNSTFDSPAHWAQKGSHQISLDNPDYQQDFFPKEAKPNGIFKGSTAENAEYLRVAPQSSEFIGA
Chain of EGFR (Human), P00533 [Assessment of EGFR-Del T790M Dependent Cell Proliferation in BaF3 Cells] (P00533 whole entry, looked up, stated change not applied): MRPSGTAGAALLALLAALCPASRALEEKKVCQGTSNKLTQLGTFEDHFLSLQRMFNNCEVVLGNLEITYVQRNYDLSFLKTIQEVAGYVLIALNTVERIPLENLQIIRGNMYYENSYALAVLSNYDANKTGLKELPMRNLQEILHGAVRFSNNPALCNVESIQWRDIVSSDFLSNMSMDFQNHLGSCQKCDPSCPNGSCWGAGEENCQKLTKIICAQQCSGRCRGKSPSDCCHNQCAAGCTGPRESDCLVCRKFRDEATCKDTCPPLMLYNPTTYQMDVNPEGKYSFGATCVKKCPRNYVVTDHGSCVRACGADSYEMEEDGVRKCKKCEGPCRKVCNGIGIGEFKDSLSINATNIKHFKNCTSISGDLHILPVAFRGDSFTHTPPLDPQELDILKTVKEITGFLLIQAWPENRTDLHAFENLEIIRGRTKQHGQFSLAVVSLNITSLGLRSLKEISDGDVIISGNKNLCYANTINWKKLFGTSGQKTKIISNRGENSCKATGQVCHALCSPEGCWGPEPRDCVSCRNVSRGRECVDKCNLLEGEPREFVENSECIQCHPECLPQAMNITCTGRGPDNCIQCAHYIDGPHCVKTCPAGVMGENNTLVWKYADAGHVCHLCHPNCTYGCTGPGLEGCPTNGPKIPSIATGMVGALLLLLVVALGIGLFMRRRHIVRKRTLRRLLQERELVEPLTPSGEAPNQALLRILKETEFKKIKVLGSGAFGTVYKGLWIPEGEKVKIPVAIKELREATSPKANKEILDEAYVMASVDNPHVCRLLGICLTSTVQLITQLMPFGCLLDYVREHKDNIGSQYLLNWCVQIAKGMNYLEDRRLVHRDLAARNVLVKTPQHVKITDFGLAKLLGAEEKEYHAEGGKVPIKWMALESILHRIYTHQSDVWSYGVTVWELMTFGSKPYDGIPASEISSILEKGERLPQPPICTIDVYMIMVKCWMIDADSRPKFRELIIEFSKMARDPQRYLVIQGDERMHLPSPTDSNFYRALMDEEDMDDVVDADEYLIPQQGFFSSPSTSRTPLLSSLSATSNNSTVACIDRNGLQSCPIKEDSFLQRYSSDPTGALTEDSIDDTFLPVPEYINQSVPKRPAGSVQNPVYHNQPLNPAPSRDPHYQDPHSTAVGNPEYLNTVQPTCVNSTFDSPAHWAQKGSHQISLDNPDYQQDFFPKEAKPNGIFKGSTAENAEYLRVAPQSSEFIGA
Chain of EGFR (human) (P00533 whole entry, looked up): as the sequence (P00533 whole entry, looked up, stated change not applied) above

C=CC(=O)Nc1cc(Nc2ncc(Cl)c(Nc3ccccc3P(C)(C)=O)n2)c(OC)cc1N1CC[C@H](N(C)C)C1
< 50 nM: all assays above

C=CC(=O)Nc1cc(Nc2ncc(Cl)c(Nc3ccccc3P(C)(C)=O)n2)c(OC)cc1C#CC(C)(C)N(C)C
< 50 nM: all assays above

C=CC(=O)Nc1cc(Nc2ncc(Cl)c(Nc3ccccc3P(C)(C)=O)n2)c(OC)cc1OCC1CCCCN1C (stereo not given)
< 50 nM: all assays above

CC#CC(=O)Nc1cc(Nc2ncc(Cl)c(Nc3ccccc3P(C)(C)=O)n2)c(OC)cc1N1CCC(N(C)C)C1 (stereo not given)
50 to 100 nM: [4]
< 50 nM: all other assays above

COc1cc(F)c(NC(=O)/C=C/Cl)cc1Nc1ncc(Cl)c(Nc2ccccc2P(C)(C)=O)n1
< 50 nM: all assays above

C=CC(=O)Nc1cc(Nc2ncc(Cl)c(Nc3ccccc3P(C)(C)=O)n2)c(OC)cc1OC(COC)CN1CCC1 (stereo not given)
< 50 nM: all assays above

C=CC(=O)Nc1ccc(OC)c(Nc2ncc(Cl)c(Nc3ccc(OCC4CCOCC4)cc3P(C)(C)=O)n2)c1
50 to 100 nM: EGFR (human)
< 50 nM: all other assays above

C=CC(=O)Nc1cc(Nc2ncc(Cl)c(Nc3ccccc3P(C)(C)=O)n2)c(OC)cc1N1CCC(O)C1 (stereo not given)
50 to 100 nM: [3]
101 to 250 nM: [4]
< 50 nM: all other assays above

C=CC(=O)Nc1cc(Nc2ncc(Cl)c(Nc3ccccc3P(C)(C)=O)n2)c(OC)cc1OC1CCCN(C)C1 (stereo not given)
< 50 nM: all assays above

C=CC(=O)Nc1ccc(Nc2ncc(Cl)c(Nc3cccc(OCCN4CCCCC4)c3P(C)(C)=O)n2)c(OC)c1
101 to 250 nM: EGFR (human) | [4]
< 50 nM: all other assays above

C=CC(=O)Nc1cc(Nc2ncc(Cl)c(Nc3ccccc3P(C)(C)=O)n2)c(OC)cc1N1CCC(N2CCOCC2)CC1
< 50 nM: all assays above

C=C(CN1CCOCC1)C(=O)Nc1ccc(OC)c(Nc2ncc(Cl)c(Nc3ccccc3P(C)(C)=O)n2)c1
< 50 nM: all assays above

C=CC(=O)Nc1cc(Nc2ncc(Cl)c(Nc3ccccc3P(C)(C)=O)n2)c(OC)cc1OCc1cccnc1
50 to 100 nM: EGFR (human) | [3]
101 to 250 nM: [4]
< 50 nM: [1] | [2]

COc1cc(N2CCOCC2)c(NC(=O)C#CCN(C)C)cc1Nc1ncc(Cl)c(Nc2ccccc2P(C)(C)=O)n1
< 50 nM: all assays above

C=CC(=O)Nc1cc(Nc2ncc(Cl)c(Nc3ccccc3P(C)(C)=O)n2)c(OC)cc1N1CCC(N2CCN(C)CC2)C1 (stereo not given)
50 to 100 nM: [3]
101 to 250 nM: [4]
< 50 nM: all other assays above

C=C(CN1CCC(O)C1)C(=O)Nc1ccc(OC)c(Nc2ncc(Cl)c(Nc3ccccc3P(C)(C)=O)n2)c1 (stereo not given)
< 50 nM: all assays above

C=CC(=O)Nc1cc(Nc2ncc(Cl)c(Nc3ccccc3P(C)(C)=O)n2)c(OC)cc1N1CC(N2CCCC2)C1
< 50 nM: all assays above

C=CC(=O)Nc1cc(Nc2ncc(Cl)c(Nc3ccccc3P(C)(C)=O)n2)c(OC)cc1C#CC(C)(C)N1CCCC1
50 to 100 nM: EGFR (human)
< 50 nM: all other assays above

C=CC(=O)Nc1cc(Nc2ncc(Cl)c(Nc3ccccc3P(C)(C)=O)n2)c(OC)cc1N1CCC(N(C)CCN(CC)CC)C1 (stereo not given)
101 to 250 nM: [4]
< 50 nM: all other assays above

C=CC(=O)Nc1cc(Nc2ncc(Cl)c(Nc3ccccc3P(C)(C)=O)n2)c(OC)cc1N1CCC(N(CC)CC)C1 (stereo not given)
< 50 nM: all assays above

C=CC(=O)Nc1cc(Nc2ncc(Cl)c(Nc3ccccc3P(C)(C)=O)n2)c(OC)cc1OC1CCCN(CCOC)C1 (stereo not given)
< 50 nM: all assays above

COc1cc(N2CCCC2)c(NC(=O)C#CCCN2CCN(C)CC2)cc1Nc1ncc(Cl)c(Nc2ccccc2P(C)(C)=O)n1
101 to 250 nM: [3] | [4]
< 50 nM: all other assays above

COc1ccc(NC(=O)C#CC(C)(C)N2CCCC2)cc1Nc1ncc(Cl)c(Nc2ccccc2P(C)(C)=O)n1
< 50 nM: all assays above

C=CC(=O)Nc1cc(Nc2ncc(Cl)c(Nc3ccccc3P(C)(C)=O)n2)c(C)cc1OC(COC)CN(C)C (stereo not given)
< 50 nM: all assays above

COCC#CC(=O)Nc1ccc(OC)c(Nc2ncc(Cl)c(Nc3ccccc3P(C)(C)=O)n2)c1
< 50 nM: all assays above

C=CC(=O)Nc1cc(Nc2ncc(Cl)c(Nc3ccccc3P(C)(C)=O)n2)c(OC)cc1C#CC(C)(C)N
< 50 nM: all assays above

C=CC(=O)Nc1cc(Nc2ncc(Cl)c(Nc3ccccc3P(C)(C)=O)n2)c(Cl)cc1OC(COC)CN(C)C (stereo not given)
< 50 nM: all assays above

C=CC(=O)Nc1cc(Nc2ncc(Cl)c(Nc3ccccc3P(C)(C)=O)n2)c(OC)cc1O[C@@H]1CCCN(C)C1
< 50 nM: all assays above

C=CC(=O)Nc1ccc(CC)c(Nc2ncc(Cl)c(Nc3ccccc3P(C)(C)=O)n2)c1
< 50 nM: all assays above

C=CC(=O)Nc1cc(Nc2ncc(Cl)c(Nc3ccccc3P(C)(C)=O)n2)c(OC)cc1N1CCCC(N(C)C)C1 (stereo not given)
< 50 nM: all assays above

C=CC(=O)Nc1cc(Nc2ncc(Cl)c(Nc3ccccc3P(C)(C)=O)n2)c(OC)cc1C#CCN1CCN(C)CC1
101 to 250 nM: [4]
< 50 nM: all other assays above

C=CC(=O)Nc1cc(Nc2ncc(Cl)c(Nc3ccccc3S(=O)(=O)C(C)C)n2)c(OC)cc1C#CCN(C)C
< 50 nM: all assays above
